Legend:
[1] = DRUGMATRIX: Glutamate, NMDA, Phencyclidine radioligand binding (ligand: [3H] TCP); format: cell membranes, Rattus norvegicus, Wistar, Cerebral cortex, Membrane; conditions: Not Active = under 50% inhibition at 10 µM
[2] = biological target: Glycine receptor (Rattus norvegicus, UniProt P22771+P24524+P07727+P20781); format: cell membranes, Wistar, Spinal cord, Membrane; note: in other assays of this panel Not Active means under 50% inhibition at 10 µM
[3] = biological target: Cytochrome P450 2E1 (Homo sapiens, UniProt P05181); conditions: bti-tn-5b1-4; note: in other assays of this panel Not Active means under 50% inhibition at 10 µM
[4] = biological target: Carbonic anhydrase 2 (Homo sapiens, UniProt P00918); test: DRUGMATRIX: Carbonic Anhydrase II enzyme inhibition (substrate: 4-Nitrophenyl acetate (4-NPA)); format: tissue-based, Erythrocyte; conditions: erythrocyte; Not Active = under 50% inhibition at 10 µM
[5] = biological target: 5-hydroxytryptamine receptor 4 (Cavia porcellus, UniProt O70528); format: cell membranes, Dunkin-Hartley, Striatum, Membrane; note: in other assays of this panel Not Active means under 50% inhibition at 10 µM
[6] = DRUGMATRIX: Phosphodiesterase PDE4 enzyme inhibition (substrate: [3H]cAMP + cAMP); conditions: u-937, Not Active = under 50% inhibition at 10 µM
[7] = biological target: Estrogen receptor beta (Homo sapiens, UniProt Q92731); conditions: sf9; note: in other assays of this panel Not Active means under 50% inhibition at 10 µM
[8] = biological target: T1, Muscarinic acetylcholine receptor M5 (Homo sapiens, UniProt P08912); format: cell membranes, Membrane; conditions: cho-k1; note: in other assays of this panel Not Active means under 50% inhibition at 10 µM
T1 sequence (P08912 whole entry): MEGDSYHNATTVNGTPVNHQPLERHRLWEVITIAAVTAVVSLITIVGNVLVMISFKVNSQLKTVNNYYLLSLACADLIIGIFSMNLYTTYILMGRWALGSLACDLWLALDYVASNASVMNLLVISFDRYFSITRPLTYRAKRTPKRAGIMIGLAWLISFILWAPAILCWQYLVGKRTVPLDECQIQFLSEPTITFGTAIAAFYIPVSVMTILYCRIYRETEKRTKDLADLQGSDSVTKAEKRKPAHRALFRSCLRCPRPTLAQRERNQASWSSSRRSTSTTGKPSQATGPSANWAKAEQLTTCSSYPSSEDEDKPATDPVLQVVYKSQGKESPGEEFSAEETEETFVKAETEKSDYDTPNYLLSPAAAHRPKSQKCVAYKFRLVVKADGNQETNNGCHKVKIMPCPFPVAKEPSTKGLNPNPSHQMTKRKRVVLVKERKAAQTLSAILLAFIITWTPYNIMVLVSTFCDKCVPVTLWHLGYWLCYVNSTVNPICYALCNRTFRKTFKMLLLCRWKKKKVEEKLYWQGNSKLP

Estrogen receptor beta, sequence (Q92731 whole entry): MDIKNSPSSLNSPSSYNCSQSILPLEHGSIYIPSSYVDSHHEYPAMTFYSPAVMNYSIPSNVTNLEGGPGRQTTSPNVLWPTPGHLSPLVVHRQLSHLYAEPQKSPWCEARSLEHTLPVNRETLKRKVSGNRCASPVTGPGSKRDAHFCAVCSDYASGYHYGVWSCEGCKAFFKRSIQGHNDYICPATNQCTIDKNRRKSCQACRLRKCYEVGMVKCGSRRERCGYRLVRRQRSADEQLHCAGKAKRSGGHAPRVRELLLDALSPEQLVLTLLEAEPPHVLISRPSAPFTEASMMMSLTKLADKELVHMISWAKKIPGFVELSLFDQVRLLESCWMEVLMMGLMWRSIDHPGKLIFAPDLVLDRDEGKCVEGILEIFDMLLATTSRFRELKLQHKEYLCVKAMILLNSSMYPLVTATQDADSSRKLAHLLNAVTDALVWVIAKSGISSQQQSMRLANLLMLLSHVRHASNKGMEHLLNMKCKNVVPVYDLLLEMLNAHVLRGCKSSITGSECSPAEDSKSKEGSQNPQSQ
Cytochrome P450 2E1, sequence (P05181 whole entry): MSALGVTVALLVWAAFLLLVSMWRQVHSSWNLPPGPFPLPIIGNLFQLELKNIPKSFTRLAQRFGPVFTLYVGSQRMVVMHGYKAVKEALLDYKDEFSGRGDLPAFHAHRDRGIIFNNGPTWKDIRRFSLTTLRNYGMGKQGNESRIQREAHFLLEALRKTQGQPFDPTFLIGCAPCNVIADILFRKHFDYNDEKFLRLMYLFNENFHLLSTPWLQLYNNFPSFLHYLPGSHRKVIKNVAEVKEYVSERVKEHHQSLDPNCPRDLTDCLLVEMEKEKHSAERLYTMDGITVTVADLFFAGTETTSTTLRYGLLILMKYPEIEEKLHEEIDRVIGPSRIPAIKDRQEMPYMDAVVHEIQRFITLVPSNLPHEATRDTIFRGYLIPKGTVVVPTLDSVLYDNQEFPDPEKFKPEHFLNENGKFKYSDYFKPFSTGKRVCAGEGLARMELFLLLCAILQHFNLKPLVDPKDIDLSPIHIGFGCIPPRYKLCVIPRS
5-hydroxytryptamine receptor 4, sequence (O70528 whole entry): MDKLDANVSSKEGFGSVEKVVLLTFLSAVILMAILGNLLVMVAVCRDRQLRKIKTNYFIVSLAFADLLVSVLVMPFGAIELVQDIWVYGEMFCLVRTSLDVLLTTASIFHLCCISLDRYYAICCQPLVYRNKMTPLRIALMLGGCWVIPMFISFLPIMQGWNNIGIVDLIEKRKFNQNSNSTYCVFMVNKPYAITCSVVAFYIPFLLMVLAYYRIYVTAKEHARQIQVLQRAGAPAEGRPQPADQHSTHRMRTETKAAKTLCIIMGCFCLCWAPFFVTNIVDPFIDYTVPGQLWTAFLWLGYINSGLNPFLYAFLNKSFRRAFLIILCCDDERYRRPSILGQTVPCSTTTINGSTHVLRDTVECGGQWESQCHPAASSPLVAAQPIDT

For CC(C(=O)O)c1ccc(CC2CCCC2=O)cc1 (stereo unspecified) [LOXOPROFEN], the IC50 [1] was “Not Active”, the Ki [1] was “Not Active” and the IC50 [2] was “Not Active”. For the same compound, the IC50 [3] was “Not Active”, the Ki [3] was “Not Active” and the IC50 [4] was “Not Active”. The IC50 [5] was “Not Active”, the IC50 [6] was “Not Active” and the Ki [6] was “Not Active”. For the same compound, the IC50 [7] was “Not Active” and the IC50 [8] was “Not Active”.

In the case of CCCCCC[C@H]1C(=O)O[C@H](C)[C@H](NC(=O)c2cccc(NC=O)c2O)C(=O)O[C@@H](C)[C@@H]1OC(=O)CC(C)C [ANTIMYCIN A], the IC50 [1] is reported as “Not Active”, the Ki [1] is reported as “Not Active” and the IC50 [2] is reported as “Not Active”. For the same compound, the IC50 [3] was “Not Active”, the Ki [3] was “Not Active” and the IC50 [4] was “Not Active”. For the same compound, the IC50 [5] was “Not Active”, the IC50 [6] was “Not Active” and the Ki [6] was “Not Active”. For the same compound, the IC50 [7] was “Not Active” and the IC50 [8] was “Not Active”.

In the case of C#C[C@]1(O)CC[C@H]2[C@@H]3CCc4cc(O)ccc4[C@H]3CC[C@@]21C [ETHINYL ESTRADIOL], the IC50 [1] is reported as “Not Active”, the Ki [1] is reported as “Not Active” and the IC50 [2] is reported as “Not Active”. The IC50 [3] was “Not Active”, the Ki [3] was “Not Active” and the IC50 [4] was “Not Active”. For the same compound, the IC50 ([5]; read-out: IC50) was 7950 nM, the Ki ([5]; read-out: Ki) was 1330 nM and the IC50 [6] was “Not Active”. The Ki [6] was “Not Active”, the IC50 [7] was “Not Active” and the IC50 [8] was “Not Active”.

In the case of CC[C@H]1OC(=O)[C@H](C)[C@@H](O[C@H]2C[C@@](C)(OC)[C@@H](O)[C@H](C)O2)[C@H](C)[C@@H](O[C@@H]2O[C@H](C)C[C@H](N(C)C)[C@H]2O)[C@](C)(O)C[C@@H](C)CN(C)[C@H](C)[C@@H](O)[C@]1(C)O [AZITHROMYCIN], the IC50 [1] is reported as “Not Active”, the Ki [1] is reported as “Not Active” and the IC50 [2] is reported as “Not Active”. For the same compound, the IC50 [3] was “Not Active”, the Ki [3] was “Not Active” and the IC50 [4] was “Not Active”. For the same compound, the IC50 [5] was “Not Active”, the IC50 [6] was “Not Active” and the Ki [6] was “Not Active”. For the same compound, the IC50 [7] was “Not Active” and the IC50 [8] was “Not Active”.

With COc1ccc2cc(CCC(C)=O)ccc2c1 [NABUMETONE] the IC50 [1] was “Not Active”, the Ki [1] was “Not Active” and the IC50 [2] was “Not Active”. The IC50 [3] was “Not Active”, the Ki [3] was “Not Active” and the IC50 [4] was “Not Active”. For the same compound, the IC50 [5] was “Not Active”, the IC50 [6] was “Not Active” and the Ki [6] was “Not Active”. For the same compound, the IC50 [7] was “Not Active” and the IC50 [8] was “Not Active”.

For CCCCC1C(=O)N(c2ccccc2)N(c2ccccc2)C1=O [PHENYLBUTAZONE], the IC50 [1] was “Not Active”, the Ki [1] was “Not Active” and the IC50 [2] was “Not Active”. For the same compound, the IC50 [3] was “Not Active”, the Ki [3] was “Not Active” and the IC50 [4] was “Not Active”. The IC50 [5] was “Not Active”, the IC50 [6] was “Not Active” and the Ki [6] was “Not Active”. The IC50 [7] was “Not Active” and the IC50 [8] was “Not Active”.

With C=C1/C(=C\C=C2/CCC[C@]3(C)[C@@H]([C@H](C)CCCC(C)C)CC[C@@H]23)C[C@@H](O)C[C@@H]1O [ALFACALCIDOL] the IC50 [1] was “Not Active”, the Ki [1] was “Not Active” and the IC50 [2] was “Not Active”. For the same compound, the IC50 [3] was “Not Active”, the Ki [3] was “Not Active” and the IC50 [4] was “Not Active”. The IC50 [5] was “Not Active”, the IC50 [6] was “Not Active” and the Ki [6] was “Not Active”. For the same compound, the IC50 [7] was “Not Active” and the IC50 [8] was “Not Active”.

With NC(=O)N1c2ccccc2C=Cc2ccccc21 [CARBAMAZEPINE] the IC50 [1] was “Not Active”, the Ki [1] was “Not Active” and the IC50 [2] was “Not Active”. For the same compound, the IC50 [3] was “Not Active”, the Ki [3] was “Not Active” and the IC50 [4] was “Not Active”. For the same compound, the IC50 [5] was “Not Active”, the IC50 [6] was “Not Active” and the Ki [6] was “Not Active”. For the same compound, the IC50 [7] was “Not Active” and the IC50 [8] was “Not Active”.

For COc1ccc(Cc2nccc3cc(OC)c(OC)cc23)cc1OC [PAPAVERINE], the IC50 [1] was “Not Active”, the Ki [1] was “Not Active” and the IC50 [2] was “Not Active”. For the same compound, the IC50 [3] was “Not Active”, the Ki [3] was “Not Active” and the IC50 [4] was “Not Active”. The IC50 [5] was “Not Active”, the IC50 ([6]; read-out: IC50) was 817 nM and the IC50 [7] was “Not Active”. For the same compound, the IC50 [8] was “Not Active”.

In the case of CNC(=C[N+](=O)[O-])NCCSCc1csc(CN(C)C)n1 [NIZATIDINE], the IC50 [1] is reported as “Not Active”, the Ki [1] is reported as “Not Active” and the IC50 [2] is reported as “Not Active”. For the same compound, the IC50 [3] was “Not Active”, the Ki [3] was “Not Active” and the IC50 [4] was “Not Active”. The IC50 [5] was “Not Active”, the IC50 [6] was “Not Active” and the Ki [6] was “Not Active”. The IC50 [7] was “Not Active” and the IC50 [8] was “Not Active”.

In the case of O=C(c1ccccc1Cl)N1CCC(Cc2ccccc2)CC1, the IC50 [1] is reported as “Not Active”, the Ki [1] is reported as “Not Active” and the IC50 [2] is reported as “Not Active”. The IC50 [3] was “Not Active”, the Ki [3] was “Not Active” and the IC50 [4] was “Not Active”. The IC50 [5] was “Not Active”, the IC50 [6] was “Not Active” and the Ki [6] was “Not Active”. The IC50 [7] was “Not Active” and the IC50 [8] was “Not Active”.
